Assay results from PMC12419922, “Myristoylated Cathelicidin-DM Fused With ANG1-7: A Novel Self-Assembling Antimicrobial Peptide for the Treatment and Mechanism of Diabetic Infected Wounds” (Journal of Diabetes Research, 2025).
Like-named read-outs stand apart in the source and are kept apart here. Where no end group is shown, it is not given here. The star is where a group is joined. Myristoyl = CCCCCCCCCCCCCC(=O)*

Assays:
E. coli (ATCC 25922) = experiment: MIC and growth inhibition, broth microdilution; type: cell-based, Escherichia coli
Procedure: (§1) The minimum inhibitory concentrations (MICs) of DM and MYR-DM-ANG1-7 were determined using the broth microdilution method. E. coli (ATCC 25922) and S. aureus (ATCC 25923) were cultured overnight in Mueller–Hinton broth (MHB) at 37°C. The cultures were diluted to 2 × 10^5 CFU/mL. The peptides were serially diluted in 10 mM phosphate-buffered solution (PBS) and added to a 96-well plate. The bacterial suspensions were mixed with an equal volume of peptide solution and incubated at 37°C for 18 h. Bacterial growth inhibition was determined by measuring the absorbance at 600 nm using a M200 multiwavelength microplate reader (Infinite M200 PRO, Switzerland). Subsequently, bacterial suspensions were treated with 1 × MIC, 2 × MIC, 3 × MIC, and 4 × MIC concentrations of the AMPs and sampled at 0, 3, 6, 12, 18, and 24 h. The absorbance was measured at 600 nm. The experiment was repeated three times.

S. aureus (ATCC 25923) = experiment: MIC and growth inhibition, broth microdilution; type: cell-based, Staphylococcus aureus
Procedure: as §1

E. coli biofilms = experiment: Antibiofilm activity, crystal violet staining and colony counting; type: cell-based, Escherichia coli; details: different concentrations, 37°C, 24 h, crystal violet OD 595 nm and viable count
Procedure: E. coli (ATCC 25922) and S. aureus (ATCC 25923) were cultured overnight in MHB medium at 37°C. The bacterial suspension was diluted to 100 times and added to a 12-well plate (500 μL/well). Each peptide with a different concentration was added to the corresponding well plate and incubated at 37°C for 24 h. After incubation, 100 μL of culture supernatant was discarded. The biofilm was fixed with 100 μL of 100% methanol for 15 min, then air-dried, then dyed with 0.1% crystal violet (CV) for 30 mins, and washed with distilled water three times. After adding 200 μL of 95% ethanol, the inhibition rate of the biofilm was calculated by measuring the OD value at 595 nm with Infinite M200 PRO, Switzerland. After ultrasonic treatment, the biofilm was fully dispersed into single cells, and the cell suspension was diluted to a suitable concentration for colony counting. All experiments were repeated three times.
The formation of bacterial biofilms in the wounds of DFU patients is the main cause of bacterial resistance. By measuring the antibiofilm ability, the inhibitory and clearing effects of drugs on biofilms can be assessed. In the case of preventing biofilm formation, E. coli and S. aureus were cultured in LB nutrient medium with different concentrations of the novel AMP MYR-DM-ANG1-7 in 24-well plates at 37°C and incubate for 24 h. […]

[1] = tested on: Human keratinocyte cells (HaCaTs); details: 50 μg/mL (highest concentration), 24 h, CCK8
Procedure: (§2) Human keratinocyte cells (HaCaTs) and human skin fibroblasts (HSFs) were seeded in 96-well plates at a density of 5000 cells per well. After overnight culture, different concentrations of AMP MYR-DM-ANG1-7 were added to the cells, and then, the cells were cultured for 24 h. Untreated cells were supplemented with fresh culture medium as the control group. Subsequently, 10% by volume of CCK8 solution (5 mg/mL) was added to each well.
(§3) After incubation for 1 h, the absorbance in each well was measured at 450 nm using an M200 full-band microplate reader (Infinite M200 PRO, Switzerland). Finally, the cell viability was calculated relative to the control groups.

[2] = tested on: human skin fibroblasts (HSFs); details: 1.56 μg/mL (lowest concentration), 24 h, CCK8
Procedure: as §2, §3

HUVECs [3] = experiment: Scratch wound healing assay; type: cell-based, human; details: HG + LPS, 20 μg/mL, n = 3
Procedure: In a 6-well plate, HUVECs (2 × 10^5 cells/well) were seeded. The cells were starved in serum-free medium for 12 h, and then, a scratch was made vertically using a 200-μL pipette tip. […]

HUVECs [4] = experiment: Tube formation (angiogenesis) on Matrigel; type: cell-based, human; details: 9 h, n = 3
Procedure: The formation of vascular structure was observed by matrix glue experiment, and the angiogenesis ability was evaluated in Matrigel stent (Corning, New York). After treatment in each group, 300 μL (2 × 10^5 cells/mL) HUVECs were digested and inoculated into a 24-well plate containing Matrigel scaffold. After 9 h, the formation image of the tube was photographed.

HUVECs [5] = experiment: MDA, thiobarbituric acid method; type: cell-based, human; details: HUVEC supernatant, HG + LPS (HG + LPS increased by 1.65 times); n = 3
Procedure: The level of MDA was determined by the thiobarbituric acid (TBA) method. Briefly, 100 μL of cell supernatant was mixed with 200 μL of a 10% trichloroacetic acid solution of 0.67% TBA. The mixture was incubated at 95°C for 30 min, cooled on ice, and centrifuged at 12,000 × g at 4°C for 10 min. The absorbance of the supernatant was measured at 532 nm using an enzyme-labeled instrument. The experiments were repeated three times.

HUVECs [6] = experiment: NO secretion, Griess reaction; type: cell-based, human; details: HG + LPS (HG + LPS 0.5 times the original level), n = 3
Procedure: NO levels were determined using the Griess reaction. Briefly, 100 μL of cell culture supernatant was mixed with an equal volume of Griess reagent and incubated at room temperature in the dark for 30 min. The absorbance of the reaction mixture was measured at 540 nm using a microplate reader. Sodium nitrite (NaNO2) was used as a standard to generate a calibration curve, and the NO concentration in the samples was calculated accordingly. All experiments were independently performed in triplicate to ensure data reliability and reproducibility.

[7] = tested on: mouse red blood cell suspension; details: 37°C, 60 min, OD 590 nm, 0.1% Triton X-100 positive control
Procedure: In order to evaluate the hemolytic activity of self-assembled peptides on normal mammalian cells, fresh blood of normal mice was collected, and heparin sodium was anticoagulated and stored. After centrifugation at 4°C and 3000 rpm for 10 min, the precipitate was collected, washed, and centrifuged with normal saline for three times and then resuspended at 10% (v/v). We mix 100 μL of different concentrations of drugs with 100 μL of mouse red blood cell suspension, incubate in a constant temperature oscillation incubator at 37°C for 60 min, then take out and centrifuge according to the above setting, absorb 100 μL of supernatant, put it in a 96-well cell culture plate, and measure the OD value at 590 nm by M200 full-band enzyme-labeled instrument (Infinite M200 Pro, Switzerland). Then, 100 μL of 0.1% Triton X-100 solution was used as a positive control and PBS as a negative control. According to the formula, hemolysis (%) = (experimental group OD value − negative control OD value)/(positive control OD value − negative control OD value) × 100%.

[8] = 4 × MIC (128 μg/mL), OD 600 nm at 0-24 h, repeated three times

Myristoyl-SSRRKPCKGWLCKLKLRGGYTLIGSATNLNRPTYVRAGGGDRVYIHP (cysteines drawn unpaired) [MYR-DM-ANG1-7]
growth of E. coli (inhibition curve) (E. coli (ATCC 25922); [8]): completely inhibit
Minimum inhibitory concentration (E. coli (ATCC 25922); E. coli ATCC 25922, broth microdilution, MHB, 2 × 10^5 CFU/mL, 37°C, 18 h, absorbance 600 nm): 12 µg/mL
increase of antibacterial efficacy compared to DM (E. coli (ATCC 25922); from MIC values against S. aureus and E. coli): 1.3 fold
growth of S. aureus (inhibition curve) (S. aureus (ATCC 25923); [8]): completely inhibit
Minimum inhibitory concentration (S. aureus (ATCC 25923); S. aureus ATCC 25923, broth microdilution, MHB, 2 × 10^5 CFU/mL, 37°C, 18 h, absorbance 600 nm): 16 µg/mL
formation of E. coli biofilms (E. coli biofilms): effectively inhibit
cell survival rate, HaCaT [1]: 92.4%
cell survival rate, HSF [2]: 95.16%
wound healing rate (scratch assay) (HUVECs [3]; after 12 h): 61.6%
healing area (scratch assay) (HUVECs [3]; at 48 h): 100%
main connections of formed blood vessels (HUVECs [4]; HG + LPS (HG + LPS group 0.3 times)): 1.9 times
length of formed blood vessels (HUVECs [4]; HG + LPS (HG + LPS group 0.4 times)): 1.7 times
secretion of MDA, decreased by (HUVECs [5]): 0.51 times
NO secretion in cell supernatant, increases to (HUVECs [6]): 1.63 times
hemolysis rate of red blood cells ([7]; 128 μg/mL): 6.01%
hemolysis rate of red blood cells ([7]; 8-64 μg/mL): less than 5%
